Measured values from ChEMBL document CHEMBL5154697, “Synthesis and anti-HIV activity of a new isoxazole containing disubstituted 1,2,4-oxadiazoles analogs” (Bioorg Med Chem, 2022).

tested on: not listed separately; assay: Cytotoxicity against human TZM-bl cells harboring beta-galactosidase/luciferase reporter gene assessed as cell viability at 100 nM measured after 48 hrs by MTT assay relative to control; format: toxicity, cell-based; conditions: read-out: Activity

Compound | viability at 48 h, 0.1 µM [%]
FC(F)(F)c1cccc(-c2nc(Cc3cc(-c4cccs4)no3)no2)c1 | 88.2
FC(F)(F)c1cccc(-c2nc(Cc3cc(-c4ccccc4)no3)no2)c1 | 84.7
Cc1ccc(-c2cc(Cc3noc(-c4cccc(C(F)(F)F)c4)n3)on2)cc1 | 82.1
COc1ccc(-c2cc(Cc3noc(-c4cccc(C(F)(F)F)c4)n3)on2)cc1 | 83
FC(F)(F)c1cccc(-c2nc(Cc3cc(-c4ccc(Cl)cc4)no3)no2)c1 | 84.4
CCNC(=O)c1noc(-c2cc(C(C)C)c(O)cc2O)c1-c1ccc(CN2CCOCC2)cc1 [LUMINESPIB] | 92.7

tested on: Human immunodeficiency virus 1; assay: Antiviral activity against HIV1 NL4.3 infected in human TZM-bl cells assessed as inhibition of viral infection at 100 nM measured after 48 hrs by steady-glo luciferase reporter gene assay relative to control; format: functional; conditions: Human immunodeficiency virus 1, NL4.3, TZM-bl

Compound | inhibition at 0.1 µM [%]
FC(F)(F)c1cccc(-c2nc(Cc3cc(-c4cccs4)no3)no2)c1 | 27.5
FC(F)(F)c1cccc(-c2nc(Cc3cc(-c4ccccc4)no3)no2)c1 | 47.4
Cc1ccc(-c2cc(Cc3noc(-c4cccc(C(F)(F)F)c4)n3)on2)cc1 | 65.4
COc1ccc(-c2cc(Cc3noc(-c4cccc(C(F)(F)F)c4)n3)on2)cc1 | 24.3
FC(F)(F)c1cccc(-c2nc(Cc3cc(-c4ccc(Cl)cc4)no3)no2)c1 | 82
CCNC(=O)c1noc(-c2cc(C(C)C)c(O)cc2O)c1-c1ccc(CN2CCOCC2)cc1 [LUMINESPIB] | 88.9

tested on: not listed separately; assay: Cytotoxicity against human CEM-GFP cells assessed as cell viability at 100 nM measured after 48 hrs by MTT assay relative to control; format: toxicity, cell-based; conditions: read-out: Activity

Compound | viability at 48 h, 0.1 µM [%]
FC(F)(F)c1cccc(-c2nc(Cc3cc(-c4cccs4)no3)no2)c1 | 88.3
FC(F)(F)c1cccc(-c2nc(Cc3cc(-c4ccccc4)no3)no2)c1 | 95.9
Cc1ccc(-c2cc(Cc3noc(-c4cccc(C(F)(F)F)c4)n3)on2)cc1 | 86.7
COc1ccc(-c2cc(Cc3noc(-c4cccc(C(F)(F)F)c4)n3)on2)cc1 | 96.6
FC(F)(F)c1cccc(-c2nc(Cc3cc(-c4ccc(Cl)cc4)no3)no2)c1 | 85.1
CCNC(=O)c1noc(-c2cc(C(C)C)c(O)cc2O)c1-c1ccc(CN2CCOCC2)cc1 [LUMINESPIB] | 94.1

tested on: Human immunodeficiency virus 1; assay: Antiviral activity against HIV1 NL4.3 virus infected in human CEM-GFP cells assessed as reduction in p24 antigen level at 100 nM measured after 72 hrs by ELISA relative to control; format: functional; conditions: Human immunodeficiency virus 1, NL4.3, CEM-GFP

Compound | inhibition at 0.1 µM [%]
FC(F)(F)c1cccc(-c2nc(Cc3cc(-c4cccs4)no3)no2)c1 | 17.5
FC(F)(F)c1cccc(-c2nc(Cc3cc(-c4ccccc4)no3)no2)c1 | 39.1
Cc1ccc(-c2cc(Cc3noc(-c4cccc(C(F)(F)F)c4)n3)on2)cc1 | 50
COc1ccc(-c2cc(Cc3noc(-c4cccc(C(F)(F)F)c4)n3)on2)cc1 | 27
FC(F)(F)c1cccc(-c2nc(Cc3cc(-c4ccc(Cl)cc4)no3)no2)c1 | 66.8
CCNC(=O)c1noc(-c2cc(C(C)C)c(O)cc2O)c1-c1ccc(CN2CCOCC2)cc1 [LUMINESPIB] | 82.5

tested on: not listed separately; assay: Cytotoxicity against human CEM-GFP cells assessed as reduction in cell viability measured after 48 hrs by MTT assay; format: toxicity, cell-based; conditions: not given

Compound | CC50 at 48 h [µM]
FC(F)(F)c1cccc(-c2nc(Cc3cc(-c4ccc(Cl)cc4)no3)no2)c1 | 13.3
CCNC(=O)c1noc(-c2cc(C(C)C)c(O)cc2O)c1-c1ccc(CN2CCOCC2)cc1 [LUMINESPIB] | 31.1

tested on: Human immunodeficiency virus 1; assay: Antiviral activity against HIV1 NL4.3 virus infected in human CEM-GFP cells assessed as reduction in p24 antigen level measured after 72 hrs by ELISA; format: functional, organism-based; conditions: Human immunodeficiency virus 1, NL4.3, CEM-GFP

IC50 [µM] | Compound
0.0857 | FC(F)(F)c1cccc(-c2nc(Cc3cc(-c4ccc(Cl)cc4)no3)no2)c1

tested on: not listed separately; assay: Therapeutic index, ratio of CC50 for cytotoxicity against human CEM-GFP cells to IC50 for antiviral activity against HIV1 NL4.3 virus infected in human CEM-GFP cells assessed as reduction in p24 antigen level; format: toxicity, cell-based; conditions: read-out: TI

Compound | selectivity ratio
FC(F)(F)c1cccc(-c2nc(Cc3cc(-c4ccc(Cl)cc4)no3)no2)c1 | 155
CCNC(=O)c1noc(-c2cc(C(C)C)c(O)cc2O)c1-c1ccc(CN2CCOCC2)cc1 [LUMINESPIB] | 470

biological target: Human immunodeficiency virus type 1 integrase (Human immunodeficiency virus 1) (UniProt Q7ZJM1); assay: Inhibition of full-length recombinant HIV1 integrase at 100 nM using target substrate DNA preincubated for 5 mins followed by substrate addition and measured after 30 mins by colorimetry relative to control; conditions: time 35.0 min
Sequence (Q7ZJM1 as listed by the source): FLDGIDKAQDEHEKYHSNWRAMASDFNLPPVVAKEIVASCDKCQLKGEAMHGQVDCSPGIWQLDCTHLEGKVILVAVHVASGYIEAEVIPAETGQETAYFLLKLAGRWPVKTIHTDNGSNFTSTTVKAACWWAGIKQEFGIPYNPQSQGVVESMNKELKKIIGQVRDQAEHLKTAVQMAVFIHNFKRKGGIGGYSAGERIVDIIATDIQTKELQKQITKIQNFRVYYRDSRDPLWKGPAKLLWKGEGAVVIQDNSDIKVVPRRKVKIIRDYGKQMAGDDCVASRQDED

inhibition [%] | Compound
9.58 | FC(F)(F)c1cccc(-c2nc(Cc3cc(-c4ccc(Cl)cc4)no3)no2)c1

biological target: Human immunodeficiency virus type 1 protease (Human immunodeficiency virus 1) (UniProt Q72874); assay: Inhibition of HIV-1 protease at 100 nM using fluorophore-labelled peptide substrate by fluorescence assay relative to control; conditions: not given

inhibition [%] | Compound
6.66 | FC(F)(F)c1cccc(-c2nc(Cc3cc(-c4ccc(Cl)cc4)no3)no2)c1

biological target: Human immunodeficiency virus type 1 reverse transcriptase (Human immunodeficiency virus 1) (UniProt Q72547); assay: Inhibition of HIV-1 reverse transcriptase RNA-dependent DNA polymerase activity assessed as reduction in biotin-dUTP incorporation at 100 nM using poly(A)/oligo (dT)15 as template/primer by ELISA relative to control; conditions: not given

inhibition [%] | Compound
5.44 | FC(F)(F)c1cccc(-c2nc(Cc3cc(-c4ccc(Cl)cc4)no3)no2)c1

biological target: Human immunodeficiency virus type 1 protease (Human immunodeficiency virus 1) (UniProt Q72874); conditions: dose 500.0 nM

inhibition [%] | Compound
87 | CC(C)(C)NC(=O)[C@@H]1CN(Cc2cccnc2)CCN1C[C@@H](O)C[C@@H](Cc1ccccc1)C(=O)N[C@H]1c2ccccc2C[C@H]1O
